Tests used:
Format in all cases: cell-based
[1] = tested on: primary human adult dermal fibroblasts; assay: Transfection of primary human adult dermal fibroblasts with GFP RNA (FIG. 6A/6B); conditions: 400 ng GFP RNA; 100% FBS; images 16 hours following transfection; both lipid-to-RNA mass ratios tested
Method: (§1) FIG. 1 depicts primary human epidermal keratinocytes cultured in a 24-well plate, and transfected with 400 ng per well of in vitro transcribed RNA encoding green fluorescent protein (GFP) complexed with the indicated lipid and with the indicated mass ratio of lipid to RNA. Complexation was performed in DMEM, and transfections were performed in 100% fetal bovine serum (FBS). Images were taken eight hours following transfection.
FIG. 6A depicts the results of an experiment conducted as in FIG. 4, but with primary human adult dermal fibroblasts instead of hPBMCs. Images were taken 16 hours following transfection.
FIG. 6B depicts the experiment of FIG. 6A, shown at higher magnification.
(§2) Stock solutions of lipid in ethanol were prepared at concentrations of between 5 mg/mL and 20 mg/mL and stored at −20° C. To perform transfections, nucleic acid was first diluted in DMEM (1 μg of nucleic acid in 50 μL of DMEM), then the desired amount of lipid stock solution was added. After adding the lipid, the solution was mixed thoroughly, and complexes were allowed to form for between about 5 minutes and about 25 minutes before adding to cells. For the experiments depicted in FIG. 1 through FIG. 6, the lipid was used without the acetone purification described in Example 5.

[2] = tested on: human peripheral blood mononuclear cells (hPBMCs); assay: Transfection of hPBMCs with GFP RNA (FIG. 4); conditions: 400 ng GFP RNA; 100% FBS; images 16 hours following transfection; both lipid-to-RNA mass ratios tested
Method: as §1
FIG. 4 depicts the results of an experiment conducted as in FIG. 1, but with human peripheral blood mononuclear cells (hPBMCs) instead of keratinocytes. Images were taken 16 hours following transfection. “LF3000” indicates cells transfected with LIPOFECTAMINE 3000 (cationic liposome formulation) commercial transfection reagent. “Neg.” indicates un-transfected cells.
as §2

[3] = tested on: confluent layer of primary human epidermal keratinocytes; assay: Transfection of a confluent layer of primary human epidermal keratinocytes with GFP RNA (FIG. 5A/5B); conditions: 400 ng GFP RNA; 100% FBS; images 24 hours following transfection; both lipid-to-RNA mass ratios tested
Method: as §1
FIG. 5A depicts the results of an experiment conducted as in FIG. 4, but with a confluent layer of primary human epidermal keratinocytes instead of hPBMCs. Images were taken 24 hours following transfection.
FIG. 5B depicts the experiment of FIG. 5A, shown at higher magnification.
as §2

[4] = tested on: neonatal human epidermal keratinocytes (HEKn); assay: Transfection of HEKn with GFP-encoding RNA complexed with lipid, mean fluorescence intensity per cell (Table 1); conditions: 20,000 HEKn per well, 24-well plate; 100 ng in vitro transcribed GFP RNA; 24 hours after transfection
Method: as §2, with “5. Table 1 depicts the results of an experiment in which 20,000 neonatal human epidermal keratinocytes (HEKn) per well of a 24-well plate were transfected with 100 ng of in vitro transcribed RNA encoding green fluorescent protein (GFP) complexed with the indicated lipids. Fluorescence was measured 24 hours after transfection. Numbers indicate mean fluorescence intensity per cell (a.u.).” for “5.”

[5] = tested on: primary human epidermal keratinocytes; assay: Transfection of primary human epidermal keratinocytes with GFP RNA in 100% FBS (FIG. 1, 2, 7)
Method: as §1
FIG. 2 depicts the experiment of FIG. 1, with fluorescence measured at the indicated time points following transfection using DHDLinS.
FIG. 3 depicts the results of an experiment conducted as in FIG. 1, but with the indicated amounts of RNA (in nanograms) and the indicated lipid-to-RNA mass ratios (in micrograms of lipid per microgram of RNA). Images were taken 16 hours following transfection. As shown in the figure, all RNA amounts and lipid-to-RNA mass ratios tested yielded a fluorescent signal.
FIG. 7 depicts the results of an experiment conducted as in FIG. 3, but with DHDLinS purified by extraction with acetone as described in Example 5.
as §2

[6] = time course of FIG. 1 experiment, 400 ng GFP RNA, 100% FBS

Compound	Fluorescence Intensity (mean fluorescence intensity per cell) [4] [a.u.]	other results
CCCCC/C=C\C/C=C\CCCCCCCCN(CCCCN(CCCCCCCC/C=C\C/C=C\CCCCC)CC(O)CN)CC(O)CN (centres unmarked) [DHDLinS, N^1,N^4-dilinoleyl-N^1,N^4-di-(2-hydroxy-3-aminopropyl)-diaminobutane]	8009	Transfection of dermal fibroblasts (GFP fluorescence images) [1]: effectively transfected; Transfection of hPBMCs (GFP fluorescence images) [2]: effectively transfected; Transfection of confluent keratinocytes (GFP fluorescence images) [3]: effectively transfected; Transfection efficiency (GFP fluorescence images) ([5]; 400 ng GFP RNA per well, transfection in 100% FBS, images eight hours following transfection, lipid without acetone purification): transfected with high efficiency; Change of fluorescence signal with lipid-to-RNA mass ratio ([5]; DHDLinS purified by extraction with acetone, lipid-to-RNA mass ratios greater than 2 μg/μg, images 16 hours following transfection): minimal increase in fluorescence signal; Signal intensity and number of fluorescent cells over time [5, 6]: increased for several hours following transfection; Time of first detection of fluorescent signal following transfection [5, 6]: detected one hour following transfection
CCCCC/C=C\C/C=C\CCCCCCCCN(CCCCCN(CCCCCCCC/C=C\C/C=C\CCCCC)CC(O)CN)CC(O)CN (centres unmarked) [Formula I (n = 5), N^1,N^5-dilinoleyl-N^1,N^5-di-(2-hydroxy-3-aminopropyl)-diaminopentane]	7554	–
CCCCC/C=C\C/C=C\CCCCCCCCN(CCCCCCN(CCCCCCCC/C=C\C/C=C\CCCCC)CC(O)CN)CC(O)CN (centres unmarked) [Formula I (n = 6), N^1,N^6-dilinoleyl-N^1,N^6-di-(2-hydroxy-3-aminopropyl)-diaminohexane]	8596	–
CCCCC/C=C\C/C=C\CCCCCCCCN(CCCCCCCCN(CCCCCCCC/C=C\C/C=C\CCCCC)CC(O)CN)CC(O)CN (centres unmarked) [Formula I (n = 8), N^1,N^8-dilinoleyl-N^1,N^8-di-(2-hydroxy-3-aminopropyl)-diaminooctane]	9170	–
CCCCC/C=C\C/C=C\CCCCCCCCN(CCCCCCCCCCN(CCCCCCCC/C=C\C/C=C\CCCCC)CC(O)CN)CC(O)CN (centres unmarked) [Formula I (n = 10), N^1,N^10-dilinoleyl-N^1,N^10-di-(2-hydroxy-3-aminopropyl)-diaminodecane]	7842	–
CCCCC/C=C\C/C=C\CCCCCCCCN(CCCCCCCCCCCCN(CCCCCCCC/C=C\C/C=C\CCCCC)CC(O)CN)CC(O)CN (centres unmarked) [Formula I (n = 12), N^1,N^12-dilinoleyl-N,N^12-di-(2-hydroxy-3-aminopropyl)-diaminododecane]	5631	–
N^1,N^2-dilinoleyl-N^1,N^2-di-(2-hydroxy-3-aminopropyl)-diaminoethane [Formula I (n = 2)]	6623	–

Source: patent US12384740B2, “Cationic lipids and transfection methods” (Factor Bioscience Inc., priority 2019, dated 2025)
